Source: patent publication US20080280952A1 (priority 2004, published 2008)

Biological target: T1, human cannabinoid CB2 receptor (Homo sapiens, UniProt P34972)
T1 construct: expressed in transfected cells; host or cells: Saccharomyces cerevisiae strain MMY23 (cassette integrated at the ura3 locus, GPD promoter)
Experiment: Cannabinoid CB2 receptor agonist activity, yeast reporter assay
Format: cell-based
Conditions: for Emax: read-out: efficacy (Emax) at the cloned human cannabinoid CB2 receptor
Description: The cannabinoid CB2 receptor agonist activity of the compounds of formula (I) was determined in accordance with the following experimental method.
Yeast (Saccharomyces cerevisiae) cells expressing the human cannabinoid CB2 receptor were generated by integration of an expression cassette into the ura3 chromosomal locus of yeast strain MMY23. This cassette consisted of DNA sequence encoding the human CB2 receptor flanked by the yeast GPD promoter to the 5′ end of CB2 and a yeast transcriptional terminator sequence to the 3′ end of CB2. MMY23 expresses a yeast/mammalian chimeric G-protein alpha subunit in which the C-terminal 5 amino acids of Gpa1 are replaced with the C-terminal 5 amino acids of human Gαi3 (as described in Brown et al. (2000), Yeast 16:11-22).
Agonists were prepared as 10 mM stocks in DMSO. […] Agonist solutions in DMSO (1% final assay volume) were transferred into black, clear bottom, microtitre plates from NUNC (96- or 384-well). Cells were suspended at a density of 0.2 OD600/ml in SC media lacking histidine, uracil, tryptophan, adenine and leucine and supplemented with 10 mM 3-aminotriazole, 0.1M sodium phosphate pH 7.0, and […] fluorescein di-β-D-glucopyranoside (FDGlu). […] Fluorescence was plotted against compound concentration and iteratively curve fitted using a four parameter fit to generate a concentration effect value. Efficacy (Emax) was calculated from the equation
Equieffective molar ratio (EMR) values were calculated from the equation

T1 sequence (P34972 whole entry): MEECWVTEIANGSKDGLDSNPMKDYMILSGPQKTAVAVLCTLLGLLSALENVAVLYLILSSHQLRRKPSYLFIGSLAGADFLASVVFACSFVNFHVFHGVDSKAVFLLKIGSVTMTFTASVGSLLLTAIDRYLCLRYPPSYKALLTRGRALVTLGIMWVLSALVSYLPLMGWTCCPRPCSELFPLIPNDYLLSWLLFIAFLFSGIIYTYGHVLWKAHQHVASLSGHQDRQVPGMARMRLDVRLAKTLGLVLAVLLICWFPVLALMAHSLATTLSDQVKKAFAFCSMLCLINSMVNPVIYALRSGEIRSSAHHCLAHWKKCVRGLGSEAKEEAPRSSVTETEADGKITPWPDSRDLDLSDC

SMILES | EC50 | Emax
Cc1cccc(Nc2cc(C3CC3)c(C(=O)NCC3CCCC3)cn2)c1 [Example 117, N-Cyclopentylmethyl-4-cyclopropyl-6-(3-methyl-phenylamino)-nicotinamide] | 300 to 1000 nM | > 50%
O=C(NCC1CCOCC1)c1cnc(Nc2ccc(Cl)cc2F)cc1C1CC1 [Example 98, 6-(4-Chloro-2-fluoro-phenylamino)-4-cyclopropyl-N-(tetrahydro-pyran-4-ylmethyl)-nicotinamide] | 300 to 1000 nM | > 50%
COc1cccc(Nc2cc(C3CC3)c(C(=O)NCC3CCCC3)cn2)c1 [Example 118, N-Cyclopentylmethyl-4-cyclopropyl-6-(3-methoxy-phenylamino)-nicotinamide] | 300 to 1000 nM | > 50%
O=C(NCC1CCC1)c1cnc(Nc2ccc(F)cc2Cl)cc1C1CC1 [Example 116] | 300 to 1000 nM | > 50%
O=C(NCC1CCOCC1)c1cnc(Nc2ccc(C(F)(F)F)c(F)c2)cc1C1CC1 [Example 92, 4-Cyclopropyl-6-(3-fluoro-4-trifluoromethyl-phenylamino)-N-(tetrahydro-pyran-4-ylmethyl)-nicotinamide] | 300 to 1000 nM | > 50%
O=C(NCC1CCOCC1)c1cnc(Nc2ccc(F)c(C(F)(F)F)c2)cc1C1CC1 [Example 93, 4-Cyclopropyl-6-(4-fluoro-3-trifluoromethyl-phenylamino)-N-(tetrahydro-pyran-4-ylmethyl)-nicotinamide] | 300 to 1000 nM | > 50%
O=C(NCC1CCOCC1)c1cnc(Nc2cc(C(F)(F)F)ccc2F)cc1C1CC1 [Example 102, 4-Cyclopropyl-6-(2-fluoro-5-trifluoromethyl-phenylamino)-N-(tetrahydro-pyran-4-ylmethyl)-nicotinamide] | 300 to 1000 nM | > 50%
O=C(NCC1CCOCC1)c1cnc(Nc2cccc(Cl)c2Cl)cc1C1CCCC1 [Example 25, 4-Cyclopentyl-6-(2,3-dichloro-phenylamino)-N-(tetrahydro-pyran-4-ylmethyl)-nicotinamide] | 300 to 1000 nM | > 50%
O=C(NCC1CCOCC1)c1cnc(Nc2cc(C(F)(F)F)ccc2Cl)cc1C1CC1 [Example 103, 6-(2-Chloro-5-trifluoromethyl-phenylamino)-4-cyclopropyl-N-(tetrahydro-pyran-4-ylmethyl)-nicotinamide] | 300 to 1000 nM | > 50%
O=C(NCC1CCOCC1)c1cnc(Nc2ccc(Cl)cc2F)cc1C1CCCC1 [Example 24, 6-(4-Chloro-2-fluoro-phenylamino)-4-cyclopentyl-N-(tetrahydro-pyran-4-ylmethyl)-nicotinamide] | 300 to 1000 nM | > 50%
O=C(NCC1CCCC1)c1cnc(Nc2cccc(F)c2F)cc1C1CC1 [Example 122, N-Cyclopentylmethyl-4-cyclopropyl-6-(2,3-difluoro-phenylamino)-nicotinamide] | 300 to 1000 nM | > 50%
N#Cc1ccc(Nc2cc(C3CCCC3)c(C(=O)NCC3CCOCC3)cn2)cc1 [Example 27, 6-(4-Cyano-phenylamino)-4-cyclopentyl-N-(tetrahydro-pyran-4-ylmethyl)-nicotinamide] | 300 to 1000 nM | > 50%
O=C(NCC1CCOCC1)c1ccc(Nc2cccc(Cl)c2)nc1C1CC1 [Example 124, 6-(3-Chloro-phenylamino)-2-cyclopropyl-N-(tetrahydro-pyran-4-ylmethyl)-nicotinamide] | 300 to 1000 nM | > 50%
Cc1ccc(Cl)cc1Nc1cc(C2CC2)c(C(=O)NCC2CCOCC2)cn1 [Example 105, 6-(5-Chloro-2-methyl-phenylamino)-4-cyclopropyl-N-(tetrahydro-pyran-4-ylmethyl)-nicotinamide] | 300 to 1000 nM | > 50%
